Assay results as given in article PMC10201364 (MicrobiologyOpen, 2023).

Key:
[1] = molecular target: Ah‐BarR trunc (P ah‐barR promoter, mKate2 reporter) (Acidianus hospitalis, UniProt F4B5V3)
Method: (§1) Reporter gene assays were performed as previously described (Bernauw et al., [2022]). pPRC6 and pITC variants (Table 1) were co‐transformed in E. coli MG1655 chemical competent cells using heat shock transformation. Transformant colonies of the Ah‐BarR biosensor strains were picked to inoculate wells of a transparent 96‐well plate (Greiner Bio‐One), each well filled with 200 µL of MOPS EZ Rich Defined medium (Teknova), prepared without the addition of the 5X EZ Supplement, after which the plate was incubated overnight in a ThermoMixer C (Eppendorf) at 30°C and 300 rpm. Next, a black 96‐well plate was filled with a naringenin solution prepared in ethanol (250 mg/L or 2.5 g/L), after which a Breathe‐Easy sealing membrane (Sigma‐Aldrich) was applied and the ethanol was evaporated in a ThermoMixer C (Eppendorf) at 75°C. […] Finally, the plate was sealed again using a Breathe‐Easy sealing membrane (Sigma‐Aldrich).
(§2) Plates were incubated at 30°C and 300 rpm for 40 h in a Synergy H1 microplate reader (BioTek) with measurements of OD600 and fluorescence (excitation wavelength: 588 nm, emission wavelength: 633 nm) being taken every 20 min. The gain was set to 140 for all measurements, except for the measurements with the amino acids (pools and separately), where the gain was set to 150. […] In addition, wells solely containing medium were measured as well to correct for the background signal.
(§3) Reporter expression was analyzed at t = 30 h, when all cultures had reached the stationary phase, by taking into account three subsequent time points (t–1, t, t+1). The corrected FL/OD600 value was calculated for each replicate (n = 4) as follows: FL/ODcor=FLt−1−FLmed,t−1/ODt−1−ODmed,t−1+FLt−FLmed,t/ODt−ODmed,t+FLt+1−FLmed,t+1/ODt+1−ODmed,t+1/3
(§4) Response curves were fitted to a Hill function of the shape P(M)=b+aM^n/θ^n+M^nforaβ−alanine−inducible responseb+aθ^n/θ^n+M^nforaβ−alanine−repressible response according to a previously published procedure (Landry et al., [2018]) with minor adaptations. […] Briefly, lmfit 1.1.0 was used to fit all replicates of a response curve to the appropriate Hill function using the Levenberg‐Marquardt algorithm (Moré, [1978]; Newville et al., [2016]). […] The dynamic range was estimated as μ=a/b .

[2] = molecular target: Ah‐BarR T134A (P ah‐barR promoter, mKate2 reporter) (Acidianus hospitalis, UniProt F4B5V3, T134A); experiment: cell-based
Sequence of Ah‐BarR T134A (P ah‐barR promoter, mKate2 reporter) (F4B5V3 entry or part of it T134A): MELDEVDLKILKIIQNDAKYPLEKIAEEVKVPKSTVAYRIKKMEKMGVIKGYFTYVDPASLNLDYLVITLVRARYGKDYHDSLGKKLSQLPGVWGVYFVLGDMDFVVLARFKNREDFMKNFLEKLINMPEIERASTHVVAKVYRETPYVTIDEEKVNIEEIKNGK
Method: as §1, §2, §3, §4

[3] = BS1 T134A, β‐alanine 0–10 mM, 20 mg/L naringenin, Hill fit

Sequence of Ah‐BarR trunc (P ah‐barR promoter, mKate2 reporter) (F4B5V3 entry or part of it): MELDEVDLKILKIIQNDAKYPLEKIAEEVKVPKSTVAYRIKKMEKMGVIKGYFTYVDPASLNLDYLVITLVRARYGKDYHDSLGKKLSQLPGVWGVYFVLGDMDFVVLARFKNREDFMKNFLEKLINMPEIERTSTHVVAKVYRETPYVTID

**Q.** For NCCC(=O)O [β‐alanine], which “Basal fluorescence output b” value [1] is on record?
**A.** 2485 RFU

**Q.** What about the “Dynamic range µ” value [1] of the same compound?
**A.** 3.56

**Q.** And the Hill coefficient n [1]?
**A.** 1.60

**Q.** And the “Maximum fluorescence increase a” value [1]?
**A.** 8840 RFU

**Q.** What about the EC50 ([1]; read-out: Threshold θ, BS1 trunc, 20 mg/L naringenin) of the same compound?
**A.** 260 µM

**Q.** What about the EC50 [2] of the same compound?
**A.** 1610 µM

**Q.** And the Hill coefficient n ([2]; BS1 T134A, 20 mg/L naringenin)?
**A.** 1.68

**Q.** And the “Dynamic range µ” value ([2]; BS1 T134A, µ = a/b)?
**A.** 4.06

**Q.** What about the “Basal fluorescence output b” value [2, 3] of the same compound?
**A.** 2145 RFU

**Q.** What about the “Maximum fluorescence increase a” value [2, 3] of the same compound?
**A.** 8703 RFU
